Source: patent publication US8865124B2, “Probe reagent for measuring oxidative stress” (Japan Science and Technology Agency, priority 2008, dated 2014)
Peptide text beside a SMILES is read from it. * marks the point of attachment. Cbz = O=C(OCc1ccccc1)*

What was measured:
[1] = test system: HeLa cells expressing the probe reagent mKO2-Nrf2—100-T2A-Keap1; assay: Evaluation of a probe reagent by imaging of a cell (mKO2 fluorescence, time-lapse microscope); assay type: cell-based, human
Method: The prepared cDNA was transfected into HeLa cells that were cultured on a glass bottom dish by using FuGENE HD (manufactured by Roche Applied Science). The medium was replaced by the fresh medium 12 hours after the transfection. […] This microscope was equipped with a cooled CCD camera so that fluorescent images of a cell were able to be captured over time.
In order to verify that the constructed probe reagent responded correctly to oxidative stress as intended, diethylmaleate (DEM), which is an oxidative stress inducer, was added at a concentration of 100 μM, and the fluorescent intensity of mKO2 (ex; BP520-540HQ, em; BP555-600HQ) was measured. […] When ethanol, a solvent, was added at 0.1% as a control, the fluorescent intensity of mKO2 was not increased.
In order to verify that this probe reagent was degraded by a proteasome in a cell under conditions without being exposed to oxidative stress, an experiment using a proteasome inhibitor, MG132, was carried out. […] In contrast, after dimethylsulfoxide (DMSO), a solvent, was added at 0.1% as a control, the fluorescent intensity of mKO2 was not increased (FIG. 5).

[2] = test system: mKO2-Nrf2 fusion molecule in HeLa cells; assay: Evaluation of a probe reagent by Western blotting using an anti-Nrf2 antibody; assay type: cell-based, human; conditions: MG132 10 μM versus 0.1% DMSO; FIG. 6
Method: First, to confirm that this probe reagent was separated into an mKO2-Nrf2 fusion molecule and Keap1 by the T2A peptide in a cell, the following experiments were performed. The cDNA, which was prepared using FuGENE® HD (Roche Applied Science Inc.), was transfected into HeLa cells cultured on a 35-mm dish. The medium was replaced by the fresh medium 12 hours after the transfection. After the 12 hours, DEM was added at a concentration of 100 μM, and ethanol was added at 0.1% as a control. The cells were cultured for further 8 hours. After that, Western blotting was conducted by using an anti-Nrf2 antibody (Santa Cruz Inc.). Both in the case of adding DEM and the case of adding ethanol, the band of the mKO2-Nrf2 fusion molecule was detected, but the band of the probe reagent comprising linked Keap1 was hardly observed.
Next, the fact that this probe reagent was degraded by a proteasome in a cell was confirmed by performing Western blotting. A proteasome inhibitor, MG132, was added at a concentration of 10 μM to HeLa cells that had been cultured in a similar manner. DMSO was added at 0.1% to control cells as well.

## CCOC(=O)/C=C\C(=O)OCC [DEM, diethylmaleate]
[1]; DEM added at 100 μM, HeLa cells transfected with probe cDNA, control 0.1% ethanol gave no increase, FIG. 3
  increase in the fluorescent intensity of mKO2: more than 10 times

## CC(C)C[C@@H](C=O)NC(=O)[C@H](CC(C)C)NC(=O)[C@H](CC(C)C)NC(=O)OCc1ccccc1 [MG132] (Cbz-Leu-Leu-Leu-aldehyde)
[1]; MG132 added at 10 μM, control 0.1% DMSO gave no increase, FIG. 5
  fluorescent intensity of mKO2: increase in the fluorescent intensity of mKO2 was observed
[2]
  band of the mKO2-Nrf2 fusion molecule (amount of probe reagent): strong band was detected compared to the case of adding DMSO

## probe reagent: fusion protein: fluorescent protein mKO2, Nrf2 amino acids 1 to 100, self-cleaved peptide T2A and Keap1; encoded by SEQ ID NO: 7
[1]; no oxidative stress loaded, 24 hours after medium change
  fluorescence of cells expressing the probe reagent before the experiment: only fluorescence at the background light level was detected
